Reference: PubChem BioAssay AID330 (DTP/NCI, 2004)
Several values for one entry are separate records, joined by “and”; a condition that tells them apart may be missing. Equal entries are not always repeated. Inconclusive results and toxic doses are left out. How the source made its calls: active means survival T/C of 150% or more; inactive means T/C below 125% in these data.

Test system: P388 leukemia ip, CD2F1 mice, survival T/C
Experiment: NCI In Vivo Anticancer Drug Screen. Data for tumor model P388 Leukemia (intraperitoneal) in CD2F1 (CDF1) mice
Details: endpoint: median survival time, higher = longer survival
How it was run: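 Mice carrying the transplanted tumor received test compound or vehicle. Survival was recorded in each group, and the value is the treated-group measurement divided by that of the vehicle-treated control group.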

[1] = dose: 50.0 mg/kg/injection, schedule: Q01DX005 (ip), vehicle: Klucel (hydroxypropylcellulose) (HPC)
[2] = dose: 100.0 mg/kg/injection, schedule: Q01DX005 (ip), vehicle: Klucel (hydroxypropylcellulose) (HPC)
[3] = dose: 200.0 mg/kg/injection, schedule: Q01DX005 (ip), vehicle: Klucel (hydroxypropylcellulose) (HPC)
[4] = dose: 100.0 mg/kg/injection, schedule: Q04DX003 (ip), vehicle: saline with Tween-80
[5] = dose: 200.0 mg/kg/injection, schedule: Q04DX003 (ip), vehicle: saline with Tween-80
[6] = dose: 400.0 mg/kg/injection, schedule: Q04DX003 (ip), vehicle: saline with Tween-80
[7] = dose: 50.0 mg/kg/injection, schedule: Q01DX005 (ip), vehicle: saline with Tween-80
[8] = dose: 100.0 mg/kg/injection, schedule: Q01DX005 (ip), vehicle: saline with Tween-80
[9] = dose: 200.0 mg/kg/injection, schedule: Q01DX005 (ip), vehicle: saline with Tween-80
[10] = dose: 100.0 mg/kg/injection, schedule: Q01DX001 (ip), vehicle: Klucel (hydroxypropylcellulose) (HPC)
[11] = dose: 25.0 mg/kg/injection, schedule: Q04DX002 (ip), vehicle: saline with Tween-80
[12] = dose: 50.0 mg/kg/injection, schedule: Q04DX002 (ip), vehicle: saline with Tween-80
[13] = dose: 100.0 mg/kg/injection, schedule: Q04DX002 (ip), vehicle: saline with Tween-80
[14] = dose: 50.0 mg/kg/injection, schedule: Q01DX009 (ip), vehicle: saline with Tween-80
[15] = dose: 100.0 mg/kg/injection, schedule: Q01DX009 (ip), vehicle: saline with Tween-80
[16] = dose: 200.0 mg/kg/injection, schedule: Q01DX009 (ip), vehicle: saline with Tween-80
[17] = dose: 25.0 mg/kg/injection, schedule: Q01DX009 (ip), vehicle: saline with Tween-80

Measured: T/C

CC(=O)/C=C/C=C/c1ccc2c(c1)OC(CO)C(c1ccc(O)c(O)c1)O2 (stereo not given)
inactive: [1] 95 % of control | [2] 90 % of control and 95 % of control | [3] 87 % of control | dose: 400.0 mg/kg/injection, schedule: Q01DX005 (ip), vehicle: Klucel (hydroxypropylcellulose) (HPC) 87 % of control

CCOC(=C\C(=O)NC)/C=C/c1ccc([N+](=O)[O-])cc1
inactive: dose: 6.25 mg/kg/injection, schedule: Q01DX005 (ip), vehicle: Klucel (hydroxypropylcellulose) (HPC) 117 % of control | dose: 12.5 mg/kg/injection, schedule: Q01DX005 (ip), vehicle: Klucel (hydroxypropylcellulose) (HPC) 91 % of control | dose: 25.0 mg/kg/injection, schedule: Q01DX005 (ip), vehicle: Klucel (hydroxypropylcellulose) (HPC) 91 % of control | [1] 86 % of control | [2] 88 % of control

CCn1c2ccccc2c2cc(N=Nc3cc(C(C)C)c(O)cc3C)ccc21
inactive: [4] 93 % of control | [5] 102 % of control | [6] 102 % of control

N#CC(C(=O)O)C(c1c(Cl)cccc1Cl)C(C#N)C(=O)O (stereo not given)
inactive: [7] 97 % of control | [8] 89 % of control

CC(C)(O)C#C[Si](C)(C)C
inactive: [7] 98 % of control | [8] 103 % of control | [9] 94 % of control

CN(C[CH2][Sn]([CH3])([CH3])[Cl])C[CH2][Sn]([CH3])([CH3])[Cl]
inactive: dose: 3.75 mg/kg/injection, schedule: Q01DX005 (ip), vehicle: saline 102 % of control | dose: 7.5 mg/kg/injection, schedule: Q01DX005 (ip), vehicle: saline 121 % of control

Cc1ccccc1N=Nc1c(O)n(-c2ccccc2Cl)c(=S)n(-c2ccccc2)c1=O
inactive: dose: 25.0 mg/kg/injection, schedule: Q01DX001 (ip), vehicle: Klucel (hydroxypropylcellulose) (HPC) 102 % of control | dose: 50.0 mg/kg/injection, schedule: Q01DX001 (ip), vehicle: Klucel (hydroxypropylcellulose) (HPC) 104 % of control | [10] 101 % of control

CCN(CC)c1ccc(/C=N\Nc2ccc([N+](=O)[O-])cn2)cc1
inactive: [7] 93 % of control | [8] 90 % of control | [9] 87 % of control

COC(=O)C1(OC)C(=O)NC2=C1C(=O)c1ccccc1C2=O (stereo not given)
inactive: [7] 94 % of control | [8] 105 % of control | [9] 106 % of control

Cc1cc(C)nc(NS(=O)(=O)c2ccc(Nc3c4ccc(Cl)cc4nc4ncccc34)cc2)n1
inactive: [7] 110 % of control | [8] 106 % of control | [9] 116 % of control

Cc1c2ncccc2c(C)c2c1[nH]c1ccccc12
inactive: [11] 100 % of control | [12] 91 % of control | [13] 98 % of control | dose: 200.0 mg/kg/injection, schedule: Q04DX002 (ip), vehicle: saline with Tween-80 89 % of control

COc1ccc(NC(SC)=C(C#N)C#N)cc1
inactive: [11] 99 % of control | [12] 100 % of control | [13] 98 % of control

OCC1(c2cccnc2)OCCO1
inactive: dose: 50.0 mg/kg/injection, schedule: Q01DX005 (ip), vehicle: saline 99 % of control | dose: 100.0 mg/kg/injection, schedule: Q01DX005 (ip), vehicle: saline 101 % of control | dose: 200.0 mg/kg/injection, schedule: Q01DX005 (ip), vehicle: saline 101 % of control

Oc1c(C(c2ccccc2)N2CCOCC2)ccc2ccccc12 (stereo not given)
inactive: [14] 109 % of control | [15] 109 % of control | [16] 104 % of control

CC[C@@]1(O)C[C@H](OC2CC(N(C)C)C(O)C(C)O2)c2c(cc3c(c2O)C(=O)c2c(O)ccc(O)c2C3=O)[C@H]1C(=O)OC (stereo not given in full)
inactive: dose: 1.56 mg/kg/injection, schedule: Q01DX009 (ip), vehicle: other 110 % of control | dose: 3.13 mg/kg/injection, schedule: Q01DX009 (ip), vehicle: other 123 % of control | dose: 6.25 mg/kg/injection, schedule: Q01DX009 (ip), vehicle: other 118 % of control

Cc1cc(=O)[nH]c(N/N=C/c2ccccc2O)n1
inactive: [15] 90 % of control | [4] 90 % of control | [16] 90 % of control | [5] 90 % of control | dose: 400.0 mg/kg/injection, schedule: Q01DX009 (ip), vehicle: saline with Tween-80 90 % of control | [6] 100 % of control

O=[N+]([O-])c1cccc(N=Cc2ccc(N(CCCl)CCCl)cc2)c1
inactive: dose: 50.0 mg/kg/injection, schedule: Q04DX003 (ip), vehicle: Klucel (hydroxypropylcellulose) (HPC) 106 % of control | dose: 100.0 mg/kg/injection, schedule: Q04DX003 (ip), vehicle: Klucel (hydroxypropylcellulose) (HPC) 104 % of control | dose: 200.0 mg/kg/injection, schedule: Q04DX003 (ip), vehicle: Klucel (hydroxypropylcellulose) (HPC) 100 % of control

O=C([O-])CC(=O)[O-].[Cu+2].c1ccc(-c2ccccn2)nc1
inactive: dose: 6.25 mg/kg/injection, schedule: Q01DX005 (ip), vehicle: saline with Tween-80 101 % of control | dose: 12.5 mg/kg/injection, schedule: Q01DX005 (ip), vehicle: saline with Tween-80 99 % of control | dose: 25.0 mg/kg/injection, schedule: Q01DX005 (ip), vehicle: saline with Tween-80 108 % of control

CCOP(=O)(OCC)C(=C(Cl)Cl)C(Cl)Cl
inactive: dose: 12.5 mg/kg/injection, schedule: Q01DX009 (ip), vehicle: saline with Tween-80 100 % of control and 104 % of control | [17] 105 % of control and 115 % of control | [14] 113 % of control and 118 % of control and 124 % of control | [15] 116 % of control

CCOC(=N)Cc1ccccc1
inactive: [17] 103 % of control | [14] 94 % of control | [15] 101 % of control | [16] 100 % of control

Nc1nc(N)c2c(ccc3nccc32)[nH]1
inactive: dose: 6.25 mg/kg/injection, schedule: Q01DX005 (ip), vehicle: saline 103 % of control | dose: 12.5 mg/kg/injection, schedule: Q01DX005 (ip), vehicle: saline 103 % of control | dose: 25.0 mg/kg/injection, schedule: Q01DX005 (ip), vehicle: saline 110 % of control

CC(=O)/C(=C(\c1ccccc1)N1CCOCC1)N1CCOCC1
inactive: [1] 99 % of control | [2] 100 % of control | [3] 107 % of control

CCOP(O)(=S)OCC.[Ho]
inactive: [10] 91 % of control | dose: 200.0 mg/kg/injection, schedule: Q01DX001 (ip), vehicle: Klucel (hydroxypropylcellulose) (HPC) 88 % of control | dose: 400.0 mg/kg/injection, schedule: Q01DX001 (ip), vehicle: Klucel (hydroxypropylcellulose) (HPC) 90 % of control

C(=NCc1ccccc1)c1ccccc1-c1ccccc1C=NCc1ccccc1
inactive: dose: 12.5 mg/kg/injection, schedule: Q01DX009 (ip), vehicle: Klucel (hydroxypropylcellulose) (HPC) 92 % of control | dose: 50.0 mg/kg/injection, schedule: Q01DX009 (ip), vehicle: Klucel (hydroxypropylcellulose) (HPC) 86 % of control | dose: 100.0 mg/kg/injection, schedule: Q01DX009 (ip), vehicle: Klucel (hydroxypropylcellulose) (HPC) 100 % of control

CCNC(=O)C12CCC(C)(C(=O)O1)C2(C)C (stereo not given)
inactive: dose: 60.0 mg/kg/injection, schedule: Q01DX005 (ip), vehicle: saline 93 % of control | dose: 120.0 mg/kg/injection, schedule: Q01DX005 (ip), vehicle: saline 98 % of control | dose: 240.0 mg/kg/injection, schedule: Q01DX005 (ip), vehicle: saline 101 % of control

Nc1c(Br)cc2c(c1Br)Cc1cc(Br)ccc1-2
inactive: [4] 104 % of control | [5] 109 % of control | [6] 90 % of control
